# What was measured:
# Format in all cases: in vivo
# Septoria nodorum = assay: Test C: preventive spray on wheat seedlings, Septoria glume blotch, disease rating; conditions: wheat seedlings sprayed to run-off, inoculated the following day with Septoria nodorum, 48 h saturated atmosphere then 9 days at 20° C.; test concentration not given
# Description: (§1) General protocol for preparing test suspensions: Test compounds were first dissolved in acetone in an amount equal to 3% of the final volume and then suspended at the desired concentration (in ppm) in acetone and purified water (50/50 mix) containing 250 ppm of the surfactant Trem® 014 (polyhydric alcohol esters). The resulting test suspensions were then used in the following tests. Spraying a 200 ppm test suspension to the point of run-off on the test plants was the equivalent of a rate of 500 g/ha. The test suspension was sprayed to the point of run-off on wheat seedlings. The following day the seedlings were inoculated with a spore suspension of Septoria nodorum (the causal agent of Septoria glume blotch) and incubated in a saturated atmosphere at 20° C. for 48 h, and then moved to a growth chamber at 20° C. for 9 days, after which disease ratings were made. Results for Tests A-C are given in Table A. In the table, a rating of 100 indicates 100% disease control and a rating of 0 indicates no disease control (relative to the controls). A dash (-) indicates no test results.
# [1] = test system: Erysiphe graminis f. sp. tritici; assay: Test A: preventive spray on wheat seedlings, wheat powdery mildew, disease rating; conditions: wheat seedlings sprayed to run-off, inoculated the following day with Erysiphe graminis f. sp. tritici, rated after 7 days at 20° C.; test concentration not given
# Description: as §1, with “spore dust” for “spore suspension”, “of Erysiphe graminis f. sp. tritici,” for “of Septoria nodorum”, “of wheat powdery mildew)” for “of Septoria glume blotch)”, “in” for “in a saturated atmosphere at 20° C. for 48 h, and then moved to”, “for 7” for “for 9”
# Puccinia recondita = assay: Test B: preventive spray on wheat seedlings, wheat leaf rust, disease rating; conditions: wheat seedlings sprayed to run-off, inoculated the following day with Puccinia recondita, 24 h saturated atmosphere then 6 days at 20° C.; test concentration not given
# Description: as §1, with “Puccinia recondita” for “Septoria nodorum”, “wheat leaf rust)” for “Septoria glume blotch)”, “24” for “48”, “6” for “9”
Compound,"Test C disease control rating (100 = 100% disease control, 0 = no disease control relative to the controls) (Septoria nodorum)","Test A disease control rating (100 = 100% disease control, 0 = no disease control relative to the controls) [1]","Test B disease control rating (100 = 100% disease control, 0 = no disease control relative to the controls) (Puccinia recondita)"
"CC(C)=CCOc1cc(C)c(N=CN(C)C)cc1C [Compound 1, N′-[2,5-Dimethyl-4-[(3-methyl-2-butenyl)-oxy]phenyl]-N,N-dimethylmethanimidamide]",92%,32%,100%
CC(C)=CCCC(C)=CCOc1cc(C)c(N=CN(C)C)cc1C [Compound 2],36%,95%,100%
CC(C)=CCCC(C)=CCCC(C)=CCOc1cc(C)c(N=CN(C)C)cc1C [Compound 3],0%,0%,87%
Cc1cc(OCC(=O)C(C)(C)C)c(C)cc1N=CN(C)C [Compound 4],0%,0%,92%
C=CCCCCOc1cc(C)c(N=CN(C)C)cc1C [Compound 5],89%,0%,100%
C=CCCCOc1cc(C)c(N=CN(C)C)cc1C [Compound 6],60%,0%,100%
COC(CCCCOc1cc(C)c(N=CN(C)C)cc1C)(OC)OC [Compound 7],0%,0%,0%
Cc1cc(OCCC(C)C)c(C)cc1N=CN(C)C [Compound 8],98%,97%,100%
C=C(CCCOc1cc(C)c(N=CN(C)C)cc1C)C(C)C [Compound 9],97%,98%,100%
Cc1cc(OCCC(C)CCCC(C)C)c(C)cc1N=CN(C)C (stereo not drawn) [Compound 10],0%,97%,100%
Cc1cc(OCCC(C)CC(C)(C)C)c(C)cc1N=CN(C)C (stereo not drawn) [Compound 11],100%,97%,100%
Cc1cc(OCCC(C)(C)C)c(C)cc1N=CN(C)C [Compound 12],80%,97%,100%
"Cc1cc(OCCCC(C)C)c(C)cc1N=CN(C)C [Compound 13, N′-[2,5-Dimethyl-4-[(4-methylpentyl)oxy]-phenyl]-N,N-dimethylmethanimidamide]",100%,97%,100%
CC(C)=CCC[C@H](C)CCOc1cc(C)c(N=CN(C)C)cc1C [Compound 14],0%,90%,100%
CC(C)=CCC[C@@H](C)CCOc1cc(C)c(N=CN(C)C)cc1C [Compound 15],0%,94%,100%
Cc1cc(OCCCCCl)c(C)cc1N=CN(C)C [Compound 16],97%,88%,100%
Cc1cc(OCCCCCCl)c(C)cc1N=CN(C)C [Compound 17],100%,92%,100%
CCCCC(C)Oc1cc(C)c(N=CN(C)C)cc1C (stereo not drawn) [Compound 18],98%,98%,100%
CCCCCOc1cc(C)c(N=CN(C)C)cc1C [Compound 19],100%,96%,100%
CCCCCCOc1cc(C)c(N=CN(C)C)cc1C [Compound 20],99%,96%,100%
CCCCCCCOc1cc(C)c(N=CN(C)C)cc1C [Compound 21],96%,98%,100%
CCCCCCCCOc1cc(C)c(N=CN(C)C)cc1C [Compound 22],88%,98%,100%
CCCCCCCCCOc1cc(C)c(N=CN(C)C)cc1C [Compound 23],13%,97%,98%
CCCCCCCCCCOc1cc(C)c(N=CN(C)C)cc1C [Compound 24],0%,86%,23%

# From US20050182025A1, “Amidinylphenyl compounds and their use as fungicides” (priority 2002, published 2005)
